From patent publication US20200291018A1, “TAM KINASE INHIBITORS” (SYROS PHARMACEUTICALS, INC., priority 2017, published 2020)
pIC50: −log10 of the molar value.

Tests used:
[1] = target: T1, MERTK (Homo sapiens, UniProt Q12866); test: TR-FRET kinase activity assay, MERTK; assay type: biochemical; settings: for pIC50: TR-FRET activity assay, ATP at Km, 60 minutes, read-out: Mer IC50; for Mer/Flt3 ratio (FLT3 IC50/Mer IC50): ratio calculated as FLT3 IC50/Mer IC50
T1 sequence (Q12866 21-999): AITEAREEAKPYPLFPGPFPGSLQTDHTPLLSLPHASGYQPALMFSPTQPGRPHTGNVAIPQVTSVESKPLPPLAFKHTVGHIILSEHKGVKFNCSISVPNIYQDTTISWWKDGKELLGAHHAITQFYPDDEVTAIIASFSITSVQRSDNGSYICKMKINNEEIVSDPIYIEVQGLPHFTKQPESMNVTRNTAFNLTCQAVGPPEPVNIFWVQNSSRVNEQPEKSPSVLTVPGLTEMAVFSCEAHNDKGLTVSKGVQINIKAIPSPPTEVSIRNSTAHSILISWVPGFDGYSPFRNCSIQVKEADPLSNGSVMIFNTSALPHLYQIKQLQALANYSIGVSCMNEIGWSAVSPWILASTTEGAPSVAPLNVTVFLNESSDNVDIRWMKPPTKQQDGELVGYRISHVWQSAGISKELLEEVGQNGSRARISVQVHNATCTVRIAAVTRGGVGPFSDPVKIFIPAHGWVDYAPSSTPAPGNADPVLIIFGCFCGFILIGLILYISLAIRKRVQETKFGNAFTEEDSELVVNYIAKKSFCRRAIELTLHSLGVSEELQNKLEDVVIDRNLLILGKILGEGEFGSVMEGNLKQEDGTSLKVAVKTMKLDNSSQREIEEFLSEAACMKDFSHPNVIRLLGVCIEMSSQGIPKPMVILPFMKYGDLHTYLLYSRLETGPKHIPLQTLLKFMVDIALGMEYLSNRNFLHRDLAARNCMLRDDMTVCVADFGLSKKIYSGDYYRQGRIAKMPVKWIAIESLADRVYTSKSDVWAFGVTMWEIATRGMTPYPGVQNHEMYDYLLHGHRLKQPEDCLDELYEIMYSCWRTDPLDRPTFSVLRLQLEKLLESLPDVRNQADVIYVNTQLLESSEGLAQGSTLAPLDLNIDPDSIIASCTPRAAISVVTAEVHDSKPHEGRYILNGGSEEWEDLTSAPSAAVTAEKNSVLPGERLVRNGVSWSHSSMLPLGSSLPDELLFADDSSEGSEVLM
How it was run: (§1)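 Buffer 50 mM HEPES pH 7.5/10 mM MgCl2/1 mM EGTA/0.01% Brij 35/1 mM DTT, RT. Km ATP per kinase, labeled peptide, 60 min; 12.5 mM EDTA stop; Eu-Ab 30 min dark; TR-FRET → IC50.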

[2] = target: T2, TYRO3 (Homo sapiens, UniProt Q06418); test: TR-FRET kinase activity assay, TYRO3; assay type: biochemical; settings: ATP at Km, 60 minutes
T2 sequence (Q06418 41-890): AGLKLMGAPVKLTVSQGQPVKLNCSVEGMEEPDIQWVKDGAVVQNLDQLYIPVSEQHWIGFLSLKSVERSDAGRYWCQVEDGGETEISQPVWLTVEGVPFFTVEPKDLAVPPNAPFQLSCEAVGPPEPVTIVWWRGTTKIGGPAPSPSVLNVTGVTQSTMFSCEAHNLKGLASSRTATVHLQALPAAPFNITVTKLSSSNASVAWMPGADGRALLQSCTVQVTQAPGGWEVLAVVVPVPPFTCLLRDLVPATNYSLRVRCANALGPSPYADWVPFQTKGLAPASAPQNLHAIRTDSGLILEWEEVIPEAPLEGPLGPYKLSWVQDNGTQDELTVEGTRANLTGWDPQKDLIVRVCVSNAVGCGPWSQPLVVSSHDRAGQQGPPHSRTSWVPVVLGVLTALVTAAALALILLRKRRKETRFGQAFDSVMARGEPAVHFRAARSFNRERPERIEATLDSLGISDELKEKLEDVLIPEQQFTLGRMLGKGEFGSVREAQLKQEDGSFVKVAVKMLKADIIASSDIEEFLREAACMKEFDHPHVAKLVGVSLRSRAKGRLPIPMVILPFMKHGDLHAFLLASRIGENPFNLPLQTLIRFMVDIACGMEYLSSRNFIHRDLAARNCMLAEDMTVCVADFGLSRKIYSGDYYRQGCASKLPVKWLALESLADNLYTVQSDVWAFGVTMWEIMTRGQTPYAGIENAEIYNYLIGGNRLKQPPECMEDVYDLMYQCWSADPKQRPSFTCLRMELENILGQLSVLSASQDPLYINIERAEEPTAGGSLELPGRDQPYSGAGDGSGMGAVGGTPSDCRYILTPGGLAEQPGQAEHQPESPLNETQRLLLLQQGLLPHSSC
How it was run: as §1

SMILES	pIC50 [1]	Mer/Flt3 ratio (FLT3 IC50/Mer IC50) [1]	pIC50 [2]
CCCC(C)Nc1ncc2c(OC3CCOCC3)ncc([C@H]3CC[C@@H](N(C)C)CC3)c2n1 (stereo partly drawn) [Compound 184]	≥ 7.00	++ (a ratio of between 10 and 100)	< 5.00
CCCC(C)Nc1ncc2c(OC3CCOCC3)ncc([C@H]3CC[C@H](N(C)C)CC3)c2n1 (stereo partly drawn) [Compound 185]	≥ 7.00	++ (a ratio of between 10 and 100)	< 5.00
CCCC(C)Nc1ncc2c(=O)n(C3CCN(C(C)C)CC3)cc([C@H]3CC[C@H](O)CC3)c2n1 (stereo partly drawn) [Compound 186]	≥ 7.00	+++ (a ratio of >100)	< 5.00
CCCC(C)Nc1ncc2c(O[C@H]3C[C@H](O)C3)ncc([C@H]3CC[C@H](O)CC3)c2n1 (stereo partly drawn) [Compound 187]	≥ 7.00	++ (a ratio of between 10 and 100)	≥ 7.00
CCCC(C)Nc1ncc2c(N3CCC[C@@H](N(C)C)C3)ncc([C@H]3CC[C@H](O)CC3)c2n1 (stereo partly drawn) [Compound 188]	≥ 7.00	+++ (a ratio of >100)	< 5.00
C[C@H](Nc1ncc2c(OC3CCNCC3)ncc([C@H]3CC[C@H](O)CC3)c2n1)c1ccccc1 [Compound 189]	≥ 7.00	++ (a ratio of between 10 and 100)	< 5.00
CCC[C@H](C)Nc1ncc2c(OC3CCN(C)CC3)ncc([C@H]3CC[C@H](O)CC3)c2n1 [Compound 190]	≥ 7.00	+++ (a ratio of >100)	6.00 to 7.00
CCCC(C)Nc1ncc2c(OCCN(C)C)ncc([C@H]3CC[C@H](O)CC3)c2n1 (stereo partly drawn) [Compound 191]	≥ 7.00	+++ (a ratio of >100)	< 5.00
CCCC(C)Nc1ncc2c(=O)n(C3CCN(C(=O)CN(C)C)CC3)cc([C@H]3CC[C@H](O)CC3)c2n1 (stereo partly drawn) [Compound 192]	≥ 7.00	+++ (a ratio of >100)	< 5.00
CCCC(C)Nc1ncc2c(=O)n(CC3CCN(C)CC3)cc([C@H]3CC[C@H](O)CC3)c2n1 (stereo partly drawn) [Compound 193]	≥ 7.00	+++ (a ratio of >100)	< 5.00
C[C@@H](CC(F)(F)F)Nc1ncc2c(O[C@H]3C[C@](C)(O)C3)ncc([C@H]3CC[C@H](O)CC3)c2n1 [Compound 430]	≥ 7.00	+++ (a ratio of >100)	≥ 7.00
COC[C@H](C)Nc1ncc2c(O[C@H]3C[C@@H](O)C3(C)C)ncc([C@H]3CC[C@H](O)CC3)c2n1 [Compound 431]	≥ 7.00	+++ (a ratio of >100)	≥ 7.00
COCCN1[C@@H]2CC[C@H]1C[C@H](Oc1ncc([C@H]3CC[C@H](O)CC3)c3nc(N[C@@H](C)CC(F)(F)F)ncc13)C2 [Compound 432]	≥ 7.00	+++ (a ratio of >100)	≥ 7.00
CC(=O)N[C@H]1C[C@@H](Oc2ncc([C@H]3CC[C@H](O)CC3)c3nc(N[C@@H](C)CC(F)(F)F)ncc23)C1 [Compound 433]	≥ 7.00	+++ (a ratio of >100)	≥ 7.00
CO[C@H]1C[C@@H](Oc2ncc([C@H]3CC[C@H](O)CC3)c3nc(N[C@@H](C)CC(F)(F)F)ncc23)C1 [Compound 434]	≥ 7.00	+++ (a ratio of >100)	≥ 7.00
COC(=O)N[C@H]1C[C@@H](Oc2ncc([C@H]3CC[C@H](O)CC3)c3nc(N[C@@H](C)CC(F)(F)F)ncc23)C1 [Compound 435]	≥ 7.00	+++ (a ratio of >100)	≥ 7.00
CC(=O)N1[C@@H]2CC[C@H]1C[C@H](Oc1ncc([C@H]3CC[C@H](O)CC3)c3nc(N[C@@H](C)CC(F)(F)F)ncc13)C2 [Compound 436]	≥ 7.00	+++ (a ratio of >100)	≥ 7.00
C[C@@H](CC(F)(F)F)Nc1ncc2c(O[C@@H]3C[C@H]4CC[C@@H](C3)N4C3COC3)ncc([C@H]3CC[C@H](O)CC3)c2n1 [Compound 437]	≥ 7.00	+++ (a ratio of >100)	≥ 7.00
